Experimental data as given in patent publication US20260103465A1, “GLYCOGEN SYNTHASE KINASE 3 INHIBITORS AND USES THEREOF” (The Broad Institute, Inc., priority 2023, published 2026).
Like-named read-outs stand apart in the source and are kept apart here. One block for each molecule: values may come before it.

Tests used:
[1] = Human liver microsomal stability; assay type: in vitro ADME; settings: for half-life at 1 µM: human, liver microsomes
Method in brief: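 Compound incubated at 1 µM with human liver microsomes for 60 min at 37 °C, in duplicate. Percent remaining derived from compound level at 60 min relative to 0 min. Controls: microsomes with NADPH and no compound; compound with microsomes lacking NADPH.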

[2] = target: T1, GSK3b (GST-full length GSK3b) (Homo sapiens, UniProt P49841); experiment: GSK3b TR-FRET kinase inhibition assay; assay type: biochemical
T1 construct: GST-full length GSK3b: [SignalChem G08-9G]; purchased SignalChem G08-9G
T1 sequence (P49841 whole entry): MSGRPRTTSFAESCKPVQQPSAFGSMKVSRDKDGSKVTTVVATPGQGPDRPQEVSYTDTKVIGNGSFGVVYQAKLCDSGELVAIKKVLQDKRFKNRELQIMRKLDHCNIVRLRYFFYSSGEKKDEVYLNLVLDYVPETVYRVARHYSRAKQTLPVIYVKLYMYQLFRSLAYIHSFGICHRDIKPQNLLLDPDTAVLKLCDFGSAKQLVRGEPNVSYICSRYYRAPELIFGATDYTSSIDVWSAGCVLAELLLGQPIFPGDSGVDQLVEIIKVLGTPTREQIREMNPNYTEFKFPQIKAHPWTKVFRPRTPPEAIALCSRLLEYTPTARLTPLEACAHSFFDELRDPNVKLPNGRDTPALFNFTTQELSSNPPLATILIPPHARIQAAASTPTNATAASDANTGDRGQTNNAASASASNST
Method in brief: (§1)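 IC50 derived from normalized 665/615 TR-FRET signal (Tb anti-pSer641 antibody, streptavidin-d2), read after EDTA stop. Reaction: 1 nM GST-full-length enzyme, 30 min compound pre-incubation, 100 min at ambient temperature in Tris pH 7.5 with 1% DMSO, 200 nM biotinylated primed glycogen synthase peptide, ATP 2 μM to 1 mM.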

[3] = target: T2, GSK3a (GST-full length GSK3a) (Homo sapiens, UniProt P49840); experiment: GSK3a TR-FRET kinase inhibition assay; assay type: biochemical
T2 construct: GST-full length GSK3a [SignalChem G08-10G]; purchased SignalChem G08-10G
T2 sequence (P49840 whole entry): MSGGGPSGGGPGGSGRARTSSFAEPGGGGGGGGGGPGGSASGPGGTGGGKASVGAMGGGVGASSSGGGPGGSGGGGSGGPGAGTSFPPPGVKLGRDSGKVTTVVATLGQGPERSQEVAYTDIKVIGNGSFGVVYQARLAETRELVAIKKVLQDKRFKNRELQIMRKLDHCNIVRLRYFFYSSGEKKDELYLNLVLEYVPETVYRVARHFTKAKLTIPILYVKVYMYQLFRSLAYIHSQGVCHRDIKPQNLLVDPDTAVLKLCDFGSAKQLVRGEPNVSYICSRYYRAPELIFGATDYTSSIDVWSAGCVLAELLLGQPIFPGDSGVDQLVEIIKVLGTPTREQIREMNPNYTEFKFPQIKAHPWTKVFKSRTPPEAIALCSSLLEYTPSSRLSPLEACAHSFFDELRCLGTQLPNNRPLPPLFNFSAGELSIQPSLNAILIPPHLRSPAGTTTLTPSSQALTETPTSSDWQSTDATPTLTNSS
Method in brief: as §1

MDR1 = experiment: MDR1/MDCK permeability assay; assay type: in vitro ADME; settings: dog; for Papp A→B at 120 min, 5 µM: MDCK-MDR1, pH 7.4, A to B; for Papp B→A at 120 min, 5 µM: MDCK-MDR1, pH 7.4, B to A; for efflux ratio at 120 min, 5 µM: MDCK-MDR1, pH 7.4, Papp B-A/A-B, Mean, P. Ratio(B-A/A-B) Efflux Ratio
Method in brief: (§2)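 Confluent MDR1-MDCK monolayers (7–11 days old), compound dosed at 5 μM in HBSSg (≤1% DMSO) apically or basolaterally, pH 7.4 both sides, receiver with 1% BSA, N=2. Both sides sampled at 120 min and quantified by LC-MS/MS; Papp in each direction, efflux ratio B-A/A-B and recovery reported.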

[4] = tested on: MDR1-MDCK cell monolayers; experiment: MDR1/MDCK permeability assay; assay type: in vitro ADME; settings: Table 4
Method in brief: as §2

half-life at 1 µM ([1]; Table 3, read-out: Microsome Stability (Human) (DMPK_BIIB), Mean, in vitro t1/2): 78 min
half-life at 1 µM ([1]; Table 4, read-out: Microsome Stability (Human) (DMPK_BIIB), Mean, in vitro t1/2): 1.4 min
IC50 ([2]; 10 μM ATP, read-out: GSK3b 10 μM ATP Average IC50): ≤ 100 nM
IC50 ([2]; 100 μM ATP, read-out: GSK3b 100 μM ATP Average IC50): 100 to 1000 nM
IC50 ([2]; 1 mM ATP, Table 3, read-out: GSK3b TR-FRET 1 mM ATP Average IC50): 1000 to 5000 nM
IC50 ([3]; 10 μM ATP, read-out: GSK3a 10 μM ATP Average IC50): ≤ 100 nM
IC50 ([3]; 100 μM ATP, read-out: GSK3a 100 μM ATP Average IC50): 100 to 1000 nM
IC50 ([3]; 1 mM ATP, Table 3, read-out: GSK3a TR-FRET 1 mM ATP Average IC50): 1000 to 5000 nM
Papp A→B at 120 min, 5 µM (MDR1; Table 3): 14 ×10⁻⁶ cm/s
Papp A→B at 120 min, 5 µM (MDR1; Table 4): 13 ×10⁻⁶ cm/s
Papp B→A at 120 min, 5 µM (MDR1; Table 3): 8.2 ×10⁻⁶ cm/s
Papp B→A at 120 min, 5 µM (MDR1; Table 4): 19 ×10⁻⁶ cm/s
efflux ratio at 120 min, 5 µM (MDR1; Table 3, read-out: MIDCK Permeability (MDR1-MDCK)): 0.56
efflux ratio at 120 min, 5 µM (MDR1; Table 4, read-out: MDCK Permeability (MDR1-MDCK)): 1.5
Structure (SMILES): CCC1(c2ccccc2)C2=C(CC(C)(C)CC2=O)Nc2ncc(C(F)(F)F)cc21 (single isomer, unassigned) [Compound 133A]

Microsome Stability (Human) (DMPK_BIIB); Mean; in vitro t1/2 ([1]; human liver microsomes, Table 4): 9.1 min
IC50 ([2]; 2 μM ATP, read-out: GSK3β TR-FRET 2 μM ATP GMean IC50): ≤ 100 nM
IC50 ([2]; 1 mM ATP, Table 4, read-out: GSK3β TR-FRET 1 mM ATP GMean IC50): 5000 to 20000 nM
IC50 ([3]; 4 μM ATP, read-out: GSK3α TR-FRET 4 μM ATP GMean IC50): ≤ 100 nM
IC50 ([3]; 1 mM ATP, Table 4, read-out: GSK3α TR-FRET 1 mM ATP GMean IC50): 1000 to 5000 nM
MDCK Permeability (MDR1-MDCK); Mean; Papp(A-B) (10^−6 cm/s) ([4]; A to B): 8.7 10^−6 cm/s
MDCK Permeability (MDR1-MDCK); Mean; Papp(B-A) (10^−6 cm/s) ([4]; B to A): 26 10^−6 cm/s
MDCK Permeability (MDR1-MDCK); Mean; P. Ratio(B-A/A-B) Efflux Ratio ([4]; Papp B-A/A-B): 2.9
Structure (SMILES): CCC1(c2ccccc2)C2=C(CC(C)(C)CC2=O)Nc2ncccc21 (single isomer, unassigned) [102 A]
